Source: paper PMC3883635, “Two Different Conformations in Hepatitis C Virus p7 Protein Account for Proton Transport and Dye Release” (PLoS ONE, 2014)

Target: T1, HCV-p7 (synthetic p7_1-63) (Hepatitis C virus (isolate H77), UniProt P27958)
T1 construct: mature p7 of the HCV genome polyprotein; synthetic peptide (solid-phase), extra N-terminal Met (residue 0); 63 residues plus 1; in DPhPC membranes
Assay: single channel recording in black lipid membrane
Assay type: biochemical
Details: DPhPC membranes; 10 µM methanol solution of p7 added; read after five minutes; concentration of HMA not in text

T1 sequence (P27958 747-809): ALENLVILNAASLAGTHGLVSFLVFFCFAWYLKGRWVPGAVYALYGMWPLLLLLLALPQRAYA

With N=C(N)NC(=O)c1nc(Cl)c(N2CCCCCC2)nc1N [HMA] the channel block was “HCV-p7 ion channel activity is blocked by HMA in a full trace of different voltages”.
